# In ChEMBL document CHEMBL3585283, “Synthesis and evaluation of a series of quinolinyl trans-cyanostilbene analogs as anticancer agents” (2014):
# The source made the active and inactive calls. The calls are words filed in the database; no cut-off is given here.
# Experiments:
# A549 = experiment: Antitumor activity against human A549 cells after 48 hrs; format: functional; settings: A549, 48 h
# [1] = Antitumor activity against human HOP92 cells after 48 hrs; format: functional; settings: HOP-92, 48 h
# K562 = experiment: Antitumor activity against human K562 cells after 48 hrs; format: functional; settings: K562, 48 h
# [2] = Antitumor activity against human RPMI8226 cells after 48 hrs; format: functional; settings: RPMI-8226, 48 h
# SK-MEL-28 = experiment: Antitumor activity against human SK-MEL-28 cells after 48 hrs; format: functional; settings: SK-MEL-28, 48 h
# SNB-75 = experiment: Antitumor activity against human SNB75 cells after 48 hrs; format: functional; settings: SNB-75, 48 h
# A498 = experiment: Antitumor activity against human A498 cells after 48 hrs; format: functional; settings: A498, 48 h
# Malme-3M = experiment: Antitumor activity against human MALME-3M cells after 48 hrs; format: functional
# [3] = Antitumor activity against human Hs578T cells after 48 hrs; format: functional; settings: Hs-578T
# NCI-H322M = experiment: Antitumor activity against human NCI-H322M cells after 48 hrs; format: functional
# TK-10 = experiment: Antitumor activity against human TK10 cells after 48 hrs; format: functional; settings: TK-10, 48 h
# [4] = Antitumor activity against human LOXIMVI cells after 48 hrs; format: functional; settings: LOX IMVI
# [5] = Antitumor activity against human BT549 cells after 48 hrs; format: functional; settings: BT-549, 48 h
# NCI-H460 = experiment: Antitumor activity against human NCI-H460 cells after 48 hrs; format: functional; settings: NCI-H460, 48 h
# [6] = Antitumor activity against human COLO205 cells after 48 hrs; format: functional; settings: COLO 205, 48 h
# SK-MEL-2 = experiment: Antitumor activity against human SK-MEL-2 cells after 48 hrs; format: functional; settings: SK-MEL-2, 48 h
# CAKI-1 = experiment: Antitumor activity against human Caki1 cells after 48 hrs; format: functional; settings: CAKI-1, 48 h
# UACC-62 = experiment: Antitumor activity against human UACC62 cells after 48 hrs; format: functional; settings: UACC-62, 48 h
# MDA-MB-468 = experiment: Antitumor activity against human MDA-MB-468 cells after 48 hrs; format: functional; settings: MDA-MB-468, 48 h
# EKVX = experiment: Antitumor activity against human EKVX cells after 48 hrs; format: functional, cell-based
# [7] = Antitumor activity against human SF295 cells after 48 hrs; format: functional; settings: SF-295, 48 h
# OVCAR-5 = experiment: Antitumor activity against human OVCAR5 cells after 48 hrs; format: functional; settings: OVCAR-5, 48 h
# SR = experiment: Antitumor activity against human SR cells after 48 hrs; format: functional
# IGROV-1 = experiment: Antitumor activity against human IGROV1 cells after 48 hrs; format: functional; settings: IGROV-1, 48 h
# KM12 = experiment: Antitumor activity against human KM12 cells after 48 hrs; format: functional; settings: KM12, 48 h
# OVCAR-3 = experiment: Antitumor activity against human OVCAR3 cells after 48 hrs; format: functional; settings: OVCAR-3, 48 h
# [8] = Antitumor activity against human SF539 cells after 48 hrs; format: functional; settings: SF-539, 48 h
# NCI-H23 = experiment: Antitumor activity against human NCI-H23 cells after 48 hrs; format: functional; settings: NCI-H23, 48 h
# M14 = experiment: Antitumor activity against human M14 cells after 48 hrs; format: functional; settings: M14, 48 h
# OVCAR-8 = experiment: Antitumor activity against human OVCAR8 cells after 48 hrs; format: functional; settings: OVCAR-8, 48 h
# NCI-H522 = experiment: Antitumor activity against human NCI-H522 cells after 48 hrs; format: functional; settings: NCI-H522, 48 h
# [9] = Antitumor activity against human MOLT4 cells after 48 hrs; format: functional; settings: MOLT-4, 48 h
# OVCAR-4 = experiment: Antitumor activity against human OVCAR4 cells after 48 hrs; format: functional; settings: OVCAR-4, 48 h
# U-251 = experiment: Antitumor activity against human U251 cells after 48 hrs; format: functional; settings: U-251, 48 h
# [10] = Antitumor activity against human NCI-ADR-RES cells after 48 hrs; format: functional
# MDA-MB-231 = experiment: Antitumor activity against human MDA-MB-231 cells after 48 hrs; format: functional; settings: MDA-MB-231, 48 h
# SF-268 = experiment: Antitumor activity against human SF268 cells after 48 hrs; format: functional; settings: SF-268, 48 h
# SN12C = experiment: Antitumor activity against human SN12C cells after 48 hrs; format: functional
# UO-31 = experiment: Antitumor activity against human UO31 cells after 48 hrs; format: functional; settings: UO-31, 48 h
# PC-3 = experiment: Antitumor activity against human PC3 cells after 48 hrs; format: functional; settings: PC-3, 48 h
# HCT-116 = experiment: Antitumor activity against human HCT116 cells after 48 hrs; format: functional; settings: HCT-116, 48 h
# HL-60(TB) = experiment: Antitumor activity against human HL-60(TB) cells after 48 hrs; format: functional; settings: HL-60, 48 h
# SNB-19 = experiment: Antitumor activity against human SNB19 cells after 48 hrs; format: functional; settings: SNB-19, 48 h
# HCT-15 = experiment: Antitumor activity against human HCT15 cells after 48 hrs; format: functional; settings: HCT-15, 48 h
# HT-29 = experiment: Antitumor activity against human HT-29 cells after 48 hrs; format: functional; settings: HT-29, 48 h
# HOP-62 = experiment: Antitumor activity against human HOP62 cells after 48 hrs; format: functional; settings: HOP-62, 48 h
# 786-0 = experiment: Antitumor activity against human 786-0 cells after 48 hrs; format: functional; settings: 786-0, 48 h
# SW-620 = experiment: Antitumor activity against human SW620 cells after 48 hrs; format: functional
# MCF7 = experiment: Antitumor activity against human MCF7 cells after 48 hrs; format: functional; settings: MCF7, 48 h
# [11] = Antitumor activity against human HCC2998 cells after 48 hrs; format: functional; settings: HCC 2998, 48 h
# MDA-MB-435 = experiment: Antitumor activity against human MDA-MB-435 cells after 48 hrs; format: functional; settings: MDA-MB-435, 48 h
# DU-145 = experiment: Antitumor activity against human DU145 cells after 48 hrs; format: functional; settings: DU-145, 48 h
# ACHN = experiment: Antitumor activity against human ACHN cells after 48 hrs; format: functional
# SK-MEL-5 = experiment: Antitumor activity against human SK-MEL-5 cells after 48 hrs; format: functional; settings: SK-MEL-5, 48 h
# T47D = experiment: Antitumor activity against human T47D cells after 48 hrs; format: functional
# SK-OV-3 = experiment: Antitumor activity against human SKOV3 cells after 48 hrs; format: functional; settings: SK-OV-3, 48 h
# CCRF-CEM = experiment: Antitumor activity against human CCRF-CEM cells after 48 hrs; format: functional
# [12] = Antitumor activity against human RXF393 cells after 48 hrs; format: functional; settings: RXF 393, 48 h
# NCI-H226 = experiment: Antitumor activity against human NCI-H226 cells after 48 hrs; format: functional; settings: NCI-H226, 48 h
compound,measurement,setting,value
COc1cc(OC)cc(/C(C#N)=C/c2ccc3ccccc3n2)c1,GI50,A549,649 nM
same,GI50,[1],542 nM
same,GI50,K562,353 nM
same,GI50,[2],433 nM
same,GI50,SK-MEL-28,896 nM
same,GI50,SNB-75,311 nM
same,GI50,A498,275 nM
same,GI50,Malme-3M,348 nM
same,GI50,[3],700 nM
same,GI50,NCI-H322M,3020 nM
same,GI50,TK-10,3280 nM
same,GI50,[4],610 nM
same,GI50,[5],342 nM
same,GI50,NCI-H460,339 nM
same,GI50,[6],374 nM
same,GI50,SK-MEL-2,522 nM
same,GI50,CAKI-1,318 nM
same,GI50,UACC-62,449 nM
same,GI50,MDA-MB-468,1500 nM
same,GI50,EKVX,inactive
same,GI50,[7],341 nM
same,GI50,OVCAR-5,716 nM
same,GI50,SR,inactive
same,GI50,IGROV-1,958 nM
same,GI50,KM12,425 nM
same,GI50,OVCAR-3,309 nM
same,GI50,[8],286 nM
same,GI50,NCI-H23,983 nM
same,GI50,M14,360 nM
same,GI50,OVCAR-8,659 nM
same,GI50,NCI-H522,94 nM
same,GI50,[9],419 nM
same,GI50,OVCAR-4,788 nM
same,GI50,U-251,425 nM
same,GI50,[10],283 nM
same,GI50,MDA-MB-231,1020 nM
same,GI50,SF-268,476 nM
same,GI50,SN12C,661 nM
same,GI50,UO-31,573 nM
same,GI50,PC-3,584 nM
same,GI50,HCT-116,416 nM
same,GI50,HL-60(TB),270 nM
same,GI50,SNB-19,728 nM
same,GI50,HCT-15,409 nM
same,GI50,HT-29,367 nM
same,GI50,HOP-62,959 nM
same,GI50,786-0,501 nM
same,GI50,"SW-620; SW-620, 48 h",357 nM
same,GI50,MCF7,537 nM
same,GI50,[11],1420 nM
same,GI50,MDA-MB-435,147 nM
same,GI50,DU-145,801 nM
same,GI50,ACHN,773 nM
same,GI50,SK-MEL-5,406 nM
same,GI50,T47D,1230 nM
same,GI50,SK-OV-3,804 nM
same,GI50,CCRF-CEM,332 nM
same,GI50,[12],334 nM
same,GI50,NCI-H226,10800 nM
COc1cc(/C(C#N)=C/c2cnc3ccccc3c2)cc(OC)c1OC,GI50,A549,680 nM
same,GI50,[1],403 nM
same,GI50,K562,444 nM
same,GI50,[2],2060 nM
same,GI50,SK-MEL-28,3270 nM
same,GI50,SNB-75,1490 nM
same,GI50,A498,678 nM
same,GI50,Malme-3M,691 nM
same,GI50,[3],1310 nM
same,GI50,NCI-H322M,27400 nM
same,GI50,TK-10,2550 nM
same,GI50,[4],645 nM
same,GI50,[5],1430 nM
same,GI50,NCI-H460,2050 nM
same,GI50,[6],374 nM
same,GI50,SK-MEL-2,1050 nM
same,GI50,CAKI-1,346 nM
same,GI50,UACC-62,478 nM
same,GI50,MDA-MB-468,870 nM
same,GI50,EKVX,inactive
same,GI50,[7],556 nM
same,GI50,OVCAR-5,3940 nM
same,GI50,SR,569 nM
same,GI50,IGROV-1,3150 nM
same,GI50,KM12,436 nM
same,GI50,OVCAR-3,263 nM
same,GI50,[8],361 nM
same,GI50,NCI-H23,2930 nM
same,GI50,M14,540 nM
same,GI50,OVCAR-8,3410 nM
same,GI50,NCI-H522,299 nM
same,GI50,[9],3200 nM
same,GI50,OVCAR-4,13800 nM
same,GI50,U-251,1700 nM
same,GI50,[10],343 nM
same,GI50,MDA-MB-231,2830 nM
same,GI50,SF-268,9170 nM
same,GI50,SN12C,1940 nM
same,GI50,UO-31,580 nM
same,GI50,PC-3,1080 nM
same,GI50,HCT-116,464 nM
same,GI50,HL-60(TB),329 nM
same,GI50,SNB-19,5230 nM
same,GI50,HCT-15,1080 nM
same,GI50,HT-29,421 nM
same,GI50,HOP-62,10300 nM
same,GI50,786-0,6290 nM
same,GI50,SW-620,inactive
same,GI50,MCF7,429 nM
same,GI50,[11],2010 nM
same,GI50,MDA-MB-435,227 nM
same,GI50,DU-145,1510 nM
same,GI50,ACHN,911 nM
same,GI50,SK-MEL-5,410 nM
same,GI50,T47D,9540 nM
same,GI50,SK-OV-3,1340 nM
same,GI50,CCRF-CEM,1380 nM
same,GI50,[12],579 nM
same,GI50,NCI-H226,> 100000 nM
